Test results from patent US9145436B2 (priority 2010, dated 2015).

Columns and labels:
E. coli = experiment: Antibiotic dilution assay, E. coli; type: cell-based; conditions: Escherichia coli; liquid medium, OD600; read-out: Bacterial IC 50 (μM) E. Coli
Experimental: (§1) The antibiotic activity of the compounds was determined via antibiotic dilution assay. After filling 100 μl growth medium into all the wells of a 96 well plate, the compounds were diluted from 1 mM to 0.010 μM. The growth control wells contained growth medium instead of inhibitory agents. The inhibitory control contained Compound 3 (200 μM). Suspensions of E. coli and B. pumilus in growth medium with an approximate OD600 of 0.03-0.04 were added to the diluted compounds, incubated for 6-8 hours on the shaker at 750 rpm and 37° C. until the growth control had reached an OD600 of about 0.6-0.8. The OD600 was then determined on a standard plate reader.
(§2) Various analogs were compared in vitro to determine key properties. Antibacterial effect was determined in representative Gram negative (E. coli) and positive (S. aureus) organisms using the method of example 16. Effects on lung inflammation were compared using the method of example 32. BALF (Bronchoalveolar Lavage Fluid) TNFa levels are determined by ELISA. In vitro toxicity is determined by growth inhibition of Jurkat lymphocytes in DMEM medium as determined using Alamar Blue reaction. Effects on cytokine production are determined in J774 cells stimulated with either LPS (0.1 μg/mL) or medium from J774 cells stimulated for 24 h with 0.2 μg/mL LPS. Cytokines are determined by ELISA and expressed as % DMSO control at 50 μM inhibitor concentration.

Jurkat = experiment: Cytotoxicity of the substances (TC50), Jurkat; type: cell-based; conditions: Jurkat cells
hERG = target: T1, hERG (Homo sapiens, UniProt Q12809); experiment: hERG inhibition in Chinese hamster ovary cells expressing the hERG c-DNA (K+ currents); type: cell-based; conditions: CHO cells expressing hERG
T1 construct: expressed in transfected cells; host or cells: Chinese hamster ovary (CHO) cells
T1 sequence (Q12809 whole entry): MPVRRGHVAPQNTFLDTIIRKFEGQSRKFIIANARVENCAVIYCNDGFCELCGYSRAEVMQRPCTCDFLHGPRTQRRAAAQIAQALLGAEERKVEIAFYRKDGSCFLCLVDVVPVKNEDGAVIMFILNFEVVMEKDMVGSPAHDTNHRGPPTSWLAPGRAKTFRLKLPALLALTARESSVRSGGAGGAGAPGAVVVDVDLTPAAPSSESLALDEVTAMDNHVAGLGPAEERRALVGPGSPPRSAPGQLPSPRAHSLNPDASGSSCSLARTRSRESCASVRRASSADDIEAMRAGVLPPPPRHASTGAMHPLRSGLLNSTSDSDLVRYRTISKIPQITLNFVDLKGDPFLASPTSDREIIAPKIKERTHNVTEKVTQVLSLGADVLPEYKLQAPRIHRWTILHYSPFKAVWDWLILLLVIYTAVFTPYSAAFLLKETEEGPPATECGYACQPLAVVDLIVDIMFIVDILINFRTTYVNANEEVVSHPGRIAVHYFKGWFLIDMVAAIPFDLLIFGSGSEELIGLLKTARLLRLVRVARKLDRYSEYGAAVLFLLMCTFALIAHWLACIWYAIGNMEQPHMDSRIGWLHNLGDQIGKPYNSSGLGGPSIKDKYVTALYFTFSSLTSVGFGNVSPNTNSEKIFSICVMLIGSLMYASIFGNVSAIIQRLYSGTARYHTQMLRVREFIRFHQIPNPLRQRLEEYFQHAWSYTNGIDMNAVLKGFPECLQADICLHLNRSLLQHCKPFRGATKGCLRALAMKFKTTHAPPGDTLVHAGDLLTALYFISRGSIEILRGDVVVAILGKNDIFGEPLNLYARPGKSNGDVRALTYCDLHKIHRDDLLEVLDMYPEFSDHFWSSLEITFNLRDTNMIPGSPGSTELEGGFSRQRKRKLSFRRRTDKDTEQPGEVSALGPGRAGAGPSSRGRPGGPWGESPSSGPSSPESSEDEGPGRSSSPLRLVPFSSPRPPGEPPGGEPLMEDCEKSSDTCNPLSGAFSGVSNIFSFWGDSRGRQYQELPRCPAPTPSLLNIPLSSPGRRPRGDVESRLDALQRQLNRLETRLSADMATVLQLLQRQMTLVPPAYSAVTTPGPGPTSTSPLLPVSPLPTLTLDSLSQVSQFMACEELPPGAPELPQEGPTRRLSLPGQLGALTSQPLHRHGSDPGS
Experimental: A major drawback of macrocycles is the inhibition of cardiac ion channels and specifically the channel encoded by the hERG gene inhibition of which is associated with “long Q-T” syndrome in some patients. To determine risk of hERG inhibition, Compounds 2 and 3 were incubated with Chinese hamster ovary cells expressing the hERG c-DNA resulting in detectable K+ currents associated with hERG at the cell surface.

[1] = test system: GM_CSF production in J774 cells; experiment: Cytokine production in stimulated J774 cells, GM-CSF (ELISA); type: cell-based; conditions: Cond. (medium from J774 cells stimulated 24 h with 0.2 μg/mL LPS)
Experimental: as §2

BALF TNFa = experiment: Airway inflammation by inhaled LPS, BALF TNFa by ELISA; type: in vivo, DBA or Swiss female mice; conditions: 20 μmol/kg i.n., 30 minutes prior to LPS challenge
Experimental: as §2
Airway inflammation is induced by inhalation of solutions containing bacterial LPS. 10 μg per mouse is provided intranasally in phosphate buffered saline. 90 minutes after challenge, bronchioalveolar lavage fluid is recovered from the lung using PBS (0.5 mL) injected into the lung via the trachea and frozen prior to analysis for cytokines by ELISA. TNFa is the primary cytokine measured. Compound 2 and other test substances are dissolved in 0.02% citric acid in water, and the pH of the resulting solution is set to 6.2. Compounds are administered 30 minutes prior to challenge either as 25 μL solutions for intranasal use, or as 125 μL volumes for p.o. application in 25 g DBA or Swiss female mice. The results of said interventions include reduction of lung and/or plasma cytokines. Example data are recorded in FIG. 13.

Jurkat lymphocytes = experiment: In vitro toxicity: growth inhibition of Jurkat lymphocytes, Alamar Blue; type: cell-based; conditions: DMEM medium
Experimental: as §2

collagen arthritis model = experiment: Collagen arthritis model; type: in vivo, Male DBA mice; conditions: administered prior to or at the start of arthritis; 2 to 40 μmol kg−1; vs vehicle
Experimental: The data are obtained using the collagen arthritis model. Male DBA mice (18-22 g) are subcutaneously injected at the tail base with bovine type II collagen (100 μL) on day 1 and day 21. Onset of arthritis occurs over the next 5 days. Treatments are typically selected from A) a mixture of a Compound such as Compound 2 (between 2 to 40 μmol kg^−1) and the vehicle which is typically 1% citratic acid in water or similar. The effect of treatment on arthritis is monitored daily by assessing body weight, paw thickness and qualitative evidence of arthritis (scored from 0 to 3, 0=no evidence of arthritis or inflammation, 3=frank swelling of the paw). At the end of qualitative assessment, animals are sacrificed for toxicological, histological and pathological analysis.

[2] = test system: TNFa production in J774 cells; experiment: Cytokine production in stimulated J774 cells, TNFa (ELISA); type: cell-based; conditions: Normal (LPS 0.1 μg/mL)
Experimental: as §2

[3] = Toxicity on oral administration for 7 days; type: in vivo; conditions: orally as a suspension up to 400 μmole/kg/day for 7 days
Experimental: (§3) To determine the potential for toxic effects of compound 2 in higher animals, compound 2 was administered to bALBc mice orally as a suspension up to a dose of 400 μmole/kg/day for 7 days.

DSS induced colitis = experiment: Dextransulfate (DSS) model of inflammatory bowel disease; type: in vivo, female C57BLK6 mice; conditions: DSS 2.5% W/V in drinking water; relative to known compounds such as sulfasalazine
Source text: Dextransulfate (DSS) is used to induce an inflammatory state in the gut of mice by providing it in the drinking water. In our model, DSS (ICN) was used at 2.5% W/V in drinking water for female C57BLK6 mice (ca. 20 g). Weight was monitored daily as were diarrhea, overall condition and occult blood. Depending on severity, animals were recovered at 5, 7 or 12 days after onset of DSS treatment, and colon and intestine material recovered for histological examination.

[4] = test system: IL-10 production in J774 cells; experiment: Cytokine production in stimulated J774 cells, IL-10 (ELISA); type: cell-based; conditions: Normal (LPS 0.1 μg/mL)
Experimental: as §2

Ames test (mutagenicity) = type: cell-based; conditions: up to 800 μg/plate (approx. 70 μM); absence and presence of metabolically active liver extract
Experimental: The Ames test is well known in the art. To determine the mutagenic potential of compound 2, it was conducted up to a concentration of 800 μg/plate (approx. 70 μM, considering 20 ml medium in a petri dish).

HepG2 = experiment: Cytotoxicity of the substances (TC50), HepG2; type: cell-based; design: unit not given beside the values; conditions: HepG2 cells
S. aureus = experiment: Antibiotic dilution assay, S. aureus; type: cell-based; conditions: Staphylococcus aureus; liquid medium, OD600; read-out: Bacterial IC 50 (μM) S. Aureus
Experimental: as §1, §2

HeLa = experiment: Cytotoxicity of the substances (TC50), HeLa; type: cell-based; conditions: HeLa cells
plasma TNFalpha = experiment: Liver inflammation induced by LPS, plasma TNFalpha; type: in vivo, Lewis rats; conditions: 10 or 50 mg/kg; LPS 4 mg/kg i.p.; relative to vehicle treated controls
Experimental: FIG. 12. Plasma TNFa production in Lewis rats in which liver damage is induced via injection of LPS (4 mg/kg), data are the mean of N=8 and are plotted with the 95% confidence interval.
Application of high doses of LPS, e.g. 4 mg/kg i.p. results in the induction of liver inflammation and necrosis. This is reflected in signs such as elevated plasma TNFalpha levels. […] Data are recorded in FIG. 12.

[5] = Exposure by LCMS analysis of organs; type: in vivo, bALBc mice
Experimental: as §3
Exposure to the compound was confirmed using LCMS analysis of organs. […] A mild increase in Compound 2 concentration relative the average bodily dose in liver and spleen is clear after 2 h. In kidney the increase appears later, after 24 h.

[6] = test system: IL-12 production in J774 cells; experiment: Cytokine production in stimulated J774 cells, IL-12 (ELISA); type: cell-based; conditions: Normal (LPS 0.1 μg/mL)
Experimental: as §2

## CC[C@H]1OC(=O)[C@H](C)C2(O)O[C@](C)(C[C@@H](C)CN(C)[C@H](C)[C@@H](O)[C@]1(C)O)[C@H](O[C@@H]1O[C@H](C)CC(N(C)C)[C@H]1O)[C@H]2C (some centres unmarked) [Compound 2]
E. coli
  IC50: 1000 µM
Jurkat
  TC50 Jurkat: 40
hERG
  hERG inhibition, potency relative to Compound 3: less potent inhibitor than the commercially available Compound 3
[1]
  Cytokine production in J774 cells as % DMSO control, GM_CSF Cond. 50 μM: 160 % DMSO control
BALF TNFa
  BALF TNFa (% Vehicle) 20 μmol/kg i.n.: 75 % Vehicle
Jurkat lymphocytes
  Jurkat Cell toxicity Normal growth limit: 100 µM
Collagen arthritis model
  arthritis score: reductions in score
  loss in body weight associated with arthritis: reduces loss in body weight
  paw swelling: reductions in score, paw swelling
[2]
  Cytokine production in J774 cells as % DMSO control, TNFa Normal 50 μM: 68 % DMSO control
[3]
  gross toxic effect / weight gain: continued to gain weight during this period suggesting no gross toxic effect
DSS induced colitis
  diarrhea severity: reductions in diarrhea severity
  mortality: reduced mortality
  weight loss: protection against weight loss
[4]
  Cytokine production in J774 cells as % DMSO control, IL-10 Normal 50 μM: 115 % DMSO control
Ames test (mutagenicity)
  mutagenic activity (Ames test): no mutagenic activity
HepG2
  TC50 HepG2: 90
S. aureus
  IC50: 1340 µM
HeLa
  TC50 HeLa: >100
Plasma TNFalpha
  plasma TNF levels: reduce plasma TNF levels relative to vehicle treated controls
[5]; kidney, liver and spleen, LCMS, oral dosing
  accumulation in organs: slightly accumulated in kidney, liver and spleen
[5]; within 24 h
  fraction of the initial value detectable in organs: more than 50%
[6]
  Cytokine production in J774 cells as % DMSO control, IL-12 Normal 50 μM: 42 % DMSO control
